According to US8980910B2, “Treatment of glaucoma” (Indiana University Research and Technology Corporation, priority 2011, dated 2015):
Entries after “also recorded” stand apart in the source; their conditions may differ.

Experiments:
[1] = test system: isoflurane-anesthetized rats; test: infusion of bicuculline methiodide into the region of the DMH, simultaneous measurement of blood pressure, heart rate and IOP; type: in vivo, rat; details: BMI 30 pmol/75 nL into the DMH vs saline vehicle
Protocol: FIG. 2A-C Simultaneous measurement of blood pressure (FIG. 2A), heart rate (FIG. 2B), and IOP (FIG. 2C) in a series of isoflurane-anesthetized rats after infusion of bicuculline methiodide (30 pmol/75 nL; n=9) or saline vehicle (75 nL; n=10) into the region of the DMH. * indicates a significant difference (p<0.05) between the vehicle treated and the BMI treated group using a repeated measures ANOVA followed by post-hoc analysis for differences between timepoints using a t-test.
To investigate whether orexin containing neurons located in the dorsornedial hypothalamus (DMH) and/or perifornical (PeF) area play a role in mediating the circadian fluctuations in IOP, isoflurane-anesthetized rats were administered orexin inhibitors and their vital functions were monitored.

panic-prone rats = details: 30 mg/kg i.p. prior to 15 min i.v. infusion of 0.5M sodium lactate
Description: Panic disorder is associated with disruption of central inhibitory gamma-aminobutyric acid (GABAergic) tone, and may contribute to panic attacks which are consistently provoked by ordinarily mild physical stressors such as mild osmotic disturbances (e.g., intravenous sodium lactate challenges). […] Orexin/hypocretin producing neurons are almost exclusive to dorsomedial hypothalamus/perifornical area and adjacent lateral hypothalamus, and play a critical role in maintaining wakefulness, vigilance and central sympathetic mobilization, which are key components of panic and anxiety. Experiments were conducted to investigate whether the administration of either a systemic orexin 1 antagonist or silencing the hypothalamic orexin gene product with RNA interference could block lactate-induced panic responses.

[2] = test system: isoflurane anesthetized rat; test: attenuation of physiologic responses to BMI microinjection into the DMH by systemic orexin-1 receptor antagonist; type: in vivo; details: 30 mg/kg i.p.; BMI 20 pmol/50 nL into the DMH before and after antagonist; FIG. 3; listed as SB334861
Protocol: FIG. 3 Continuous and simultaneous measurement of blood pressure, heart rate, and core body temperature in an isoflurane anesthetized rat after identical microinjections of BMI (20 pmol/50 nL) into the DMH (time marks 1 and 3) before and after systemic administration of the orexin-1 receptor antagonist SB334861 (30 mg/kg i.p.; time mark 2).
Experiments were then conducted to determine whether an orexin-I receptor antagonist (SB334861) could attenuate the physiologic responses to chemical stimulation of the DMH. To test orexin inhibitors ability to attenuate the BMI stimulated response, BMI was administered to an isoflurane-anesthetized rat both before and after administration of the orexin inhibitor and the responses were monitored.

[3] = target: T1, orexin receptor-1 (ORX 1) (Homo sapiens, UniProt O43613); details: orexin A relative to orexin B; cited from earlier work
T1 sequence (O43613 1-425): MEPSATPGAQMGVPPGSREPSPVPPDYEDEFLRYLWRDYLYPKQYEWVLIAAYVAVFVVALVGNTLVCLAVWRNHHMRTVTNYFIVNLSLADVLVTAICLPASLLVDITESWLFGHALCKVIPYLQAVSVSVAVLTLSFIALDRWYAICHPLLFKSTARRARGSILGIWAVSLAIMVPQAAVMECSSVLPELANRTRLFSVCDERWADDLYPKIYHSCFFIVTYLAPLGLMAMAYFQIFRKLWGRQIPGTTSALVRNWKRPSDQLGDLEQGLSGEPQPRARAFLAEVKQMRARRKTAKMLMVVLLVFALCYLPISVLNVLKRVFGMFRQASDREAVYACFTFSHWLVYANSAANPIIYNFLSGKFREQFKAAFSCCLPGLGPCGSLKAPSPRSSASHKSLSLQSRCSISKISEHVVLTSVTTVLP

In the case of C[N+]1(C)CCc2cc3c(cc2[C@H]1[C@@H]1OC(=O)c2c1ccc1c2OCO1)OCO3.[I-] [BMI, bicuculline methiodide], the “blood pressure after chemical stimulation of the DMH” value ([1]; FIG. 2A) was “expected increases”, the “heart rate after chemical stimulation of the DMH” value ([1]; FIG. 2B) was “expected increases” and the “IOP after chemical stimulation of the DMH” value ([1]; FIG. 2C) was “evoked an increase”.

In the case of Cc1nc2ccc(NC(=O)Nc3ccnc4cccnc34)cc2o1 [SB334867, 1-(2-methylbenzoxazol-6-yl)-3-[1,5]naphthyridin-4-yl urea], the “lactate induced increases in core body temperature (thermogenic response)” value (panic-prone rats; FIG. 1C) was “attenuated; also recorded: blocks”, the “lactate induced increases in heart rate (cardioexcitatory response)” value (panic-prone rats; FIG. 1D) was “attenuated; also recorded: blocks” and the “BMI-evoked increase in blood pressure” value [2] was “significant attenuation”. For the same compound, the “BMI-evoked increase in core body temperature” value [2] was “significant attenuation” and the “BMI-evoked increase in heart rate” value [2] was “significant attenuation”.

For “orexin A: 33-amino acid neuropeptide, endogenous ligand of orexin receptors (QPLPDCCRQKTCSCRLYELLHGAGNHAAGILTL; Orexin-A; UniProt O43612 34-66, looked up)”, the “affinity of ORX 1 for orexin A greater than for orexin B” value [3] is listed as 1 order of magnitude.
